Values of other authors, collected in publication PMC2593936 (Bioorganic & medicinal chemistry, 2008).
Marks after values point to notes of the source that are not given here.

Target: T1, human A3AR (Homo sapiens, UniProt P0DMS8)
T1 sequence (P0DMS8 1-318): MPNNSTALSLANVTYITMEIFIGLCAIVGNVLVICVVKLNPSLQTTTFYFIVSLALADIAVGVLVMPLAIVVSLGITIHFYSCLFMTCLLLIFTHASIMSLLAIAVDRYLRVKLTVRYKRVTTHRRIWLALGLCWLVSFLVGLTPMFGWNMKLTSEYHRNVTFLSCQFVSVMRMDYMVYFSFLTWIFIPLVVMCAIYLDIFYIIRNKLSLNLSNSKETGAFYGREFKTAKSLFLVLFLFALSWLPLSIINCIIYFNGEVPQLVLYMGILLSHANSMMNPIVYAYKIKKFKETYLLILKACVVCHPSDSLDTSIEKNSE
Conditions: relative to full agonist NECA at 10 μM

CNC(=O)[C@@]12C[C@@H]1[C@@H](n1cnc3c(NCc4cccc(I)c4)nc(Cl)nc31)[C@H](O)[C@@H]2O [Compound 7]
%Efficacy A3: 100 ^c %
